Data on 38 compounds can be found in BindingDB's records for doi:10.7270/Q2KP80J0 (The Scripps Research Institute Molecular Screening Center, 2007).

The test has as its target T1, Ephrin type-B receptor 4 (Homo sapiens, UniProt P54760).
T1 sequence (P54760 whole entry): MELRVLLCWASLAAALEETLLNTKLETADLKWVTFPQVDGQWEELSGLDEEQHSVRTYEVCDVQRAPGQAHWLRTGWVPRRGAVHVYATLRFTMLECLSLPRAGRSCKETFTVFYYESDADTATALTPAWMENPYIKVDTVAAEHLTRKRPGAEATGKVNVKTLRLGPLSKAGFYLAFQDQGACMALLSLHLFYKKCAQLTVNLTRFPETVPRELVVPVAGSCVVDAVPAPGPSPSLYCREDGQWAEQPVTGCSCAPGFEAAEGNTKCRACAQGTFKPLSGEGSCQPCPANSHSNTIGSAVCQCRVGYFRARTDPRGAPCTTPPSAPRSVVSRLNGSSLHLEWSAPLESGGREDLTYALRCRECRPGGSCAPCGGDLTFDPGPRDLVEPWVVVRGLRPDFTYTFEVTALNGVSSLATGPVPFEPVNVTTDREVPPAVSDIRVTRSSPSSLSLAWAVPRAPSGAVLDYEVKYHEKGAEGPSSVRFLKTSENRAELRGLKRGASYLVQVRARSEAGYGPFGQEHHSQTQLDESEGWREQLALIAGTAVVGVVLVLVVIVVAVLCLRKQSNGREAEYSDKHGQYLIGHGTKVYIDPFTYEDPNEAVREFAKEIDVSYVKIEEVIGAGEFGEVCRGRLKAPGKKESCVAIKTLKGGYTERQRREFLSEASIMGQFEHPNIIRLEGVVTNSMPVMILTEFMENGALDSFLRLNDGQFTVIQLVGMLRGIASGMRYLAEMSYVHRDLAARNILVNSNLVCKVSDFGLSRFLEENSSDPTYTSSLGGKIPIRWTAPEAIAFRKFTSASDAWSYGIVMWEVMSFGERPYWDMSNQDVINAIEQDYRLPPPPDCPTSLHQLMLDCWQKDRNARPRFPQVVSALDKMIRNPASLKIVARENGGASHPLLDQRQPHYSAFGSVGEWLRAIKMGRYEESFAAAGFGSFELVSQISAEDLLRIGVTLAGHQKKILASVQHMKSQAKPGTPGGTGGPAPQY
Kind of test: blockers of EphB4 ligand binding – biochemical, TNYL-RAW peptide displacement, dose response (AID 835).
The compound `Cn1c(=O)c(NCCO)c2c3c(cccc31)C(=O)c1ccccc1-2` [1-(2-Hydroxy-ethylamino)-3-methyl-3H-naphtho[1,2,3-de]quinoline-2,7-dione] gave an IC50 of 8.4 µM.

The compound `COc1ccc(Cn2nnnc2C(c2cc3ccc(OC)cc3nc2O)N2CCC(C)CC2)cc1` (stereo not drawn) [MLS000523343] had an IC50 of more than 79.4 µM.

Regarding `O=C1c2ccccc2-c2onc3ccc(NCCCn4ccnc4)c1c23` [SMR000044769], the IC50 was determined as 0.8 µM.

In turn, `COc1ccc(C(C)NC(=O)c2ccccc2)cc1` (stereo not drawn) [MLS000525960] had an IC50 of more than 79.4 µM.

With `O=C(NCCCN1CCCC1=O)NC12CC3CC(CC(C3)C1)C2` [MLS000050547], the IC50 was more than 79.4 µM.

Take `CCc1cccc2c(C#N)cn(CC(=O)N3CCOCC3)c12` [7-ethyl-1-[2-(4-morpholinyl)-2-oxoethyl]-1H-indole-3-carbonitrile]: the IC50 was more than 79.4 µM.

For `O=C(Nc1cccnc1)C1COc2ccccc2O1` (stereo not drawn) [2,3-Dihydro-benzo[1,4]dioxine-2-carboxylic acid pyridin-3-ylamide], the IC50 was more than 79.4 µM.

In turn, `COc1ccc2[nH]c(=O)c(CN(Cc3ccccc3)Cc3nnnn3CC3CCCO3)cc2c1` (stereo not drawn) [3-({Benzyl-[1-(tetrahydro-furan-2-ylmethyl)-1H-tetrazol-5-ylmethyl]-amino}-methyl)-6-methoxy-1H-quinolin-2-one] registered a 50% inhibitory concentration (IC50) of more than 79.4 µM.

The compound `CC(=O)Nc1ccc(SCC(=O)OCC(=O)NC(=O)NCc2ccco2)cc1` [2-[(4-acetamidophenyl)thio]acetic acid [2-(2-furfurylcarbamoylamino)-2-keto-ethyl] ester] came in with an IC50 of more than 79.4 µM.

With `O=C(/C=C/c1ccccc1Cl)NCc1ccccc1` [(E)-3-(2-chlorophenyl)-N-(phenylmethyl)-2-propenamide], the IC50 is more than 79.4 µM.

The compound `CCC(C)(C)NC(=O)C(c1ccco1)N(C(=O)c1csnn1)c1cccc(F)c1` (stereo not drawn) [MLS000074093] gave an IC50 of more than 79.4 µM.

In turn, `O=C(Nc1nc2n(n1)C(c1ccc(Cl)cc1)CC(c1ccc(Cl)cc1)N2)c1ccco1` (stereo not drawn) [SMR000045014] registered an IC50 of more than 79.4 µM.

In turn, `Cc1cc(C(=O)CSc2nnc(Nc3ccccc3F)s2)c(C)n1CC1CCCO1` (stereo not drawn) [1-[2,5-dimethyl-1-(2-oxolanylmethyl)-3-pyrrolyl]-2-[[5-(2-fluoroanilino)-1,3,4-thiadiazol-2-yl]thio]ethanone] yielded an IC50 of more than 79.4 µM.

As for `CCCOC(=O)C(C)n1cnc2sc(C)c(C)c2c1=O` (stereo not drawn) [2-(4-keto-5,6-dimethyl-thieno[2,3-d]pyrimidin-3-yl)propionic acid propyl ester], the IC50 is more than 79.4 µM.

Regarding `C=CCn1c(C#N)c(N)sc1=N` [3-Allyl-5-amino-2-imino-2,3-dihydro-thiazole-4-carbonitrile], the IC50 is more than 79.4 µM.

`Cc1[nH]c2ccccc2c1/C=C1\N=C(c2ccc(F)cc2)OC1=O` [2-(4-fluorophenyl)-4-[(2-methyl-1H-indol-3-yl)methylene]-1,3-oxazol-5(4H)-one] yielded an IC50 of more than 79.4 µM.

`N#Cc1ncc(C(F)(F)F)cc1Sc1ccc(N)cc1` [3-(4-aminophenyl)sulfanyl-5-(trifluoromethyl)pyridine-2-carbonitrile] displayed an IC50 of more than 79.4 µM.

Regarding `O=C(CN1C(=O)NC2(CCCC2)C1=O)NCCC1=CCCCC1` [2-[2,4-bis(oxidanylidene)-1,3-diazaspiro[4.4]nonan-3-yl]-N-[2-(cyclohexen-1-yl)ethyl]ethanamide], the IC50 was more than 79.4 µM.

Consider `Cc1ccc(Nc2cnn(C34CC5CC(CC(CC(=O)O)(C5)C3)C4)c(=O)c2Cl)cc1` [2-[3-[5-chloro-4-(4-methylanilino)-6-oxo-1-pyridazinyl]-1-adamantyl]acetic acid], for which the IC50 was more than 79.4 µM.

For `CN(C)c1nc2n(c(=O)n1)CCO2` [2-(dimethylamino)-6,7-dihydro-[1,3]oxazolo[3,2-a][1,3,5]triazin-4-one], the IC50 was more than 79.4 µM.

In turn, `c1coc(-c2nc(-c3ccco3)c(-c3ccco3)nc2-c2ccco2)c1` [2,3,5,6-tetrakis(2-furanyl)pyrazine] returned an IC50 of more than 79.4 µM.

With `Cc1cccc2c(C(=O)O)c3c(nc12)CCCCC3` [4-methyl-7,8,9,10-tetrahydro-6H-cyclohepta[b]quinoline-11-carboxylic acid], the IC50 is more than 79.4 µM.

For the compound `CN1C(=O)S/C(=C/c2cccnc2)C1=O` [(5E)-3-methyl-5-(3-pyridinylmethylidene)thiazolidine-2,4-dione], the IC50 is more than 79.4 µM.

Take `O=C(O)/C(=C\c1ccco1)NC(=O)c1cccc2ccccc12` [(E)-3-(furan-2-yl)-2-(naphthalene-1-carbonylamino)prop-2-enoic acid]: the IC50 was more than 79.4 µM.

`COCc1nnc(NC(=O)CC(c2ccccc2)c2ccccc2)s1` [MLS000528014] gave an IC50 of more than 79.4 µM.

On to `O=C(/C=C/c1cccc([N+](=O)[O-])c1)NCCN1CCOCC1` [(E)-N-(2-morpholin-4-ylethyl)-3-(3-nitrophenyl)prop-2-enamide], for which the IC50 was more than 79.4 µM.

For the compound `CCOC(=O)N1CCC(n2c(SCC(=O)NCCC3=CCCCC3)nc3ccccc3c2=O)CC1` [4-[2-[[2-[2-(1-cyclohexenyl)ethylamino]-2-oxoethyl]thio]-4-oxo-3-quinazolinyl]-1-piperidinecarboxylic acid ethyl ester], the IC50 is more than 79.4 µM.

In turn, `Cc1cc(NC(c2ccc(Cl)cc2)c2ccc3cccnc3c2O)no1` (stereo not drawn) [7-[(4-chlorophenyl)-[(5-methyl-1,2-oxazol-3-yl)amino]methyl]quinolin-8-ol] gave an IC50 of more than 79.4 µM.

`COc1cccc(OC)c1-c1nn2c(-c3cc(-c4ccccc4)n[nH]3)nnc2s1` [MLS000083027]: the IC50 is more than 79.4 µM.

Take `C=CCn1c(NCCc2ccccc2)nc2c1c(=O)n(C)c(=O)n2C` [1,3-dimethyl-8-(2-phenylethylamino)-7-prop-2-enyl-purine-2,6-dione]: the IC50 is more than 79.4 µM.

Turning to `Cc1cc(C)n2nc(SC3CCCCN(C(=O)c4ccc(F)cc4)C3=O)nc2n1` (stereo not drawn) [3-[(5,7-dimethyl-[1,2,4]triazolo[1,5-a]pyrimidin-2-yl)sulfanyl]-1-(4-fluorobenzoyl)azepan-2-one], the IC50 is more than 79.4 µM.

Consider `CCCc1nnc(NC(=O)CN2C(=O)c3ccccc3S2(=O)=O)s1` [2-(1,1-dioxido-3-oxo-1,2-benzisothiazol-2(3H)-yl)-N-(5-propyl-1,3,4-thiadiazol-2-yl)acetamide], for which the IC50 was more than 79.4 µM.

`Cc1ccc(Cn2c(SCCN3CCCCC3)nc3c2c(=O)n(C)c(=O)n3C)cc1` [1,3-Dimethyl-7-(4-methyl-benzyl)-8-(2-piperidin-1-yl-ethylsulfanyl)-3,7-dihydro-purine-2,6-dione] came in with an IC50 of more than 79.4 µM.

`O=S1(=O)c2cccc3cccc(c23)N1Cc1nnc(-c2ccccc2Br)o1` [MLS000081705] showed an IC50 of more than 79.4 µM.

Compound `CCOC(=O)c1c(C)oc2c1c1c(c3ccccc32)OCN(Cc2cccnc2)C1` [MLS000043717] showed an IC50 of more than 79.4 µM.

As for `Oc1c(CN2CCCCC2)cc(COCc2ccccc2)c2cccnc12` [5-(benzoxymethyl)-7-(piperidinomethyl)quinolin-8-ol], the IC50 was more than 79.4 µM.

Take `CN(c1ccc(Cl)cc1)c1cc(=O)n(C)c2ccccc12` [4-(4-chloro-N-methyl-anilino)-1-methyl-carbostyril]: the IC50 is more than 79.4 µM.

For `CCOC(=O)C1=C(c2ccccc2)N2C=CS(=O)(=O)NC2S1` (stereo not drawn) [MLS000048572], the IC50 is more than 79.4 µM.
